The source of these data is US10792283B2, “Quinoline analogs as phosphatidylinositol 3-kinase inhibitors” (HANGZHOU ZHENGXIANG PHARMACEUTICALS CO., LTD., priority 2016, dated 2020).

Series [1] has as its target PI3Kδ (Homo sapiens (Human), UniProt O00329). Briefly: Enzymatic activity of PI3K isoforms, TR-FRET assay. As to conditions: 10 μM ATP. The series is classed as biochemical. On the procedure: Enzymatic activity of the class I PI3K isoforms in the presence of the compounds of Table 1 above was measured using a time-resolved fluorescence resonance energy transfer (TR-FRET) assay.
The TR-FRET assay can monitor formation of the product 3,4,5-inositol triphosphate molecule (PIP3) as it competed with fluorescently labeled PIP3 for binding to the GRP-1 pleckstrin homology domain protein. An increase in […] product results in a decrease in TR-FRET signal as the labeled fluorophore is displaced from the GRP-1 protein binding site.
Control compound, PI-103, was tested in 10-dose IC50 with 3-fold serial dilution starting at 10 μm.
Data are normalized based on negative (DMSO) control. The alpha, beta, delta, and gamma IC50 values were calculated from the fit of the dose-response curves to a four parameter equation. IC50 are reported in units of nM.
IC50 values were obtained for all PI3K isoforms (α, β, δ, and γ), and Table 2 summarizes the IC50 data collected for PI3Kδ in this Example.

Series [2] is described as follows: Hepatocyte stability (parent drug disappearance in cryopreserved hepatocytes). The series is classed as in vitro ADME, human. As to conditions: for half-life at 1 μM: human, cryopreserved hepatocytes. As for the experimental part: The hepatocyte assay was used to evaluate the metabolic stability of test articles (TA) following incubation in cryopreserved hepatocytes by monitoring parent drug disappearance via […]. The TA with 1% final DMSO concentration was incubated with 0.5 million hepatocytes/ml at 1 μM substrate in duplicate. The incubation was carried out at 37° C. with 5% CO2 and saturating humidity. Samples were taken at 0, 1, 2, and 3 hours to monitor the disappearance of TA and a half-life (t ½) was determined. Table 2 below summarizes the t½ values (e.g. t ½) collected from this Example.

In series [3] the test system is SU-DHL-6. Briefly: Cytotoxicity assay (CTG, 72 h) in SU-DHL-6. The series is classed as cell-based. On the procedure: (§1) Cytotoxicity assay of compound 2 of Table 1 in selected cell lines
(§2) Day 0: cell seeding for all cell lines with the density of 10000 cells/80 μL/well.
(§3) Day 1, drug treatment: Prepare 3-fold serial dilutions of compound stock solutions with growth medium. Dispense 20 μL (5×) drμg solution in each well (duplicates for each concentration), the final DMSO concentration of each well treated with test compound and corresponding vehicle control is 0.1%. Incubate the plate for 72 h in specified incubator.
(§4) Day 4, plate reading: Thaw CTG solution and equilibrate to room temperature, add 100 μL of CTG per well, mix the contents for 2 min on the plate shaker, incubate for 10 min before recording the luminescence signal using Envision.

Series [4] deals with SU-DHL-4. Briefly: Cytotoxicity assay (CTG, 72 h) in SU-DHL-4. The series is classed as cell-based. As for the experimental part:
as §1, §2, §3, §4

In series [5] the test system is JVM-2. Briefly: Cytotoxicity assay (CTG, 72 h) in JVM-2. Format: cell-based. On the procedure:
as §1, §2, §3, §4

Series [6] relates to SU-DHL-5. The series can be described thus: Cytotoxicity assay (CTG, 72 h) in SU-DHL-5. Format: cell-based. On the procedure:
as §1, §2, §3, §4

Series [7] has as its system EHEB. The series can be described thus: Cytotoxicity assay (CTG, 72 h) in EHEB. Format: cell-based. The note with it: cell viability. On the procedure:
as §1, §2, §3, §4

For series [8] the following is noted: cited from earlier work.
For series [9] the following is noted: cited from earlier work. This is another data set of the same source.
Series [10] in a line: PK profile after iv and PO dosing in rats. Format: in vivo, SD rats. As for the experimental part: Compound 2 was dosed by both iv and PO in the rats.
The mark [11] stands for this setting: 1 μM substrate, 0.5 million hepatocytes/ml, 37° C., read-out: hepatocyte T1/2 (converted).
Where [12] appears, read: human hepatocytes, Table 3 comparison, read-out: T ½.
The mark [13] stands for this setting: Homo sapiens, SU-DHL-6, cell viability.
[14] abbreviates: Homo sapiens, SU-DHL-4, cell viability.
Where [15] appears, read: Homo sapiens, JVM-2, cell viability.
[16] abbreviates: IV, data from idelalisib NDA filing.
[17] abbreviates: oral, data from idelalisib NDA filing.
[18] abbreviates: Homo sapiens, SU-DHL-5, cell viability.
Setting [19] is: Sprague-Dawley, rat, in vivo, 1.32 mg/kg, iv, rats.
The mark [20] stands for this setting: Sprague-Dawley, rat, in vivo, po, 10 mg/kg, SD rats.

Like-named read-outs stand apart in the source and are kept apart here.

Chain of PI3Kδ (O00329 whole entry, the tested form may be a part, canonical isoform): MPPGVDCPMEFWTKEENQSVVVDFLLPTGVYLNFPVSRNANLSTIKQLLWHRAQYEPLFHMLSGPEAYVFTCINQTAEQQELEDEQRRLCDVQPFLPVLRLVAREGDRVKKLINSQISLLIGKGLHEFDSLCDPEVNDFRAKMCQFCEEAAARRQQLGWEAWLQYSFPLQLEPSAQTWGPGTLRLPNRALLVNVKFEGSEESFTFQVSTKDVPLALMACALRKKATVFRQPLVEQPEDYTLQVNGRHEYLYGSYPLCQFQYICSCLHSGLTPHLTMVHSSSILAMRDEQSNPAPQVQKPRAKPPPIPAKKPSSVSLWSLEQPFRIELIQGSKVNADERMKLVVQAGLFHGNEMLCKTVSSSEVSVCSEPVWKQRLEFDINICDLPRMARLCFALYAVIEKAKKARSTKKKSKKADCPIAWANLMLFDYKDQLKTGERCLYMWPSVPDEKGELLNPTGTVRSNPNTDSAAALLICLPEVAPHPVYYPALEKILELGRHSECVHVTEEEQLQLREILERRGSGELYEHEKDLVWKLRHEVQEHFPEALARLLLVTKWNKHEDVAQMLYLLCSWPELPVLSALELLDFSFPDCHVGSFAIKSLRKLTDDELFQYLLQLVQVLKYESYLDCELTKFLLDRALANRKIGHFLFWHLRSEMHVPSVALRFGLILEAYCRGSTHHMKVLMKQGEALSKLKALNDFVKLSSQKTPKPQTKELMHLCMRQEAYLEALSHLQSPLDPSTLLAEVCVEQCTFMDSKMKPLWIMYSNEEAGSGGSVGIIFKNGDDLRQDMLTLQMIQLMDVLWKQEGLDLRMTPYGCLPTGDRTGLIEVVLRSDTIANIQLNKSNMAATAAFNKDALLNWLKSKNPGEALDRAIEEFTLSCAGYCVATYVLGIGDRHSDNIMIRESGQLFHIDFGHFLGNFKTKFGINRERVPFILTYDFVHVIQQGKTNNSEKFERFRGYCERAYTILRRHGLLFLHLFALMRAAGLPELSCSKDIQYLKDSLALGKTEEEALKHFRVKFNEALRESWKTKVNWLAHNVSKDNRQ
Chain of PI3Kδ (P27986 whole entry partner, the tested form may be a part, canonical isoform): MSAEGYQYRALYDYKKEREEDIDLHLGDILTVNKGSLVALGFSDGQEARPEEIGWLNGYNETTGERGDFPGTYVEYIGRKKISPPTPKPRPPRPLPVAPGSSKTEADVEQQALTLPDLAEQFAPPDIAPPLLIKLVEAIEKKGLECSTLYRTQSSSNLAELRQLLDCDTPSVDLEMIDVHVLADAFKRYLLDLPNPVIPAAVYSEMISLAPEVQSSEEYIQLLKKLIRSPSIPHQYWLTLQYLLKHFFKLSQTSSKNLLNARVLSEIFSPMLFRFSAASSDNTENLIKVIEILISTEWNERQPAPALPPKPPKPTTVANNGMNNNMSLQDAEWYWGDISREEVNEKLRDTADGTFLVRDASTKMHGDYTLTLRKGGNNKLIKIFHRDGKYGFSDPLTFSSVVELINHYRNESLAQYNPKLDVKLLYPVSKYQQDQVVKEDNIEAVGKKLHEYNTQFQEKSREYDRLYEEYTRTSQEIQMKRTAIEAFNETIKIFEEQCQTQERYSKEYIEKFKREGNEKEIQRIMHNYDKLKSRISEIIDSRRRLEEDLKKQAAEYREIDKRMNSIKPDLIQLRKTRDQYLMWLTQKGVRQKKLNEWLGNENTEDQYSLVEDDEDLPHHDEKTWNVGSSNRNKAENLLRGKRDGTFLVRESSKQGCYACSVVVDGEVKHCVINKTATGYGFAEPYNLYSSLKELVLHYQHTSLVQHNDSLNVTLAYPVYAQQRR

`C[C@H](Nc1nc(N)nc(N)c1C#N)c1cc2ccc(F)cc2nc1-c1ccccc1S(C)(=O)=O` [Compound 4, (S)-2,4-Diamino-6-{1-[7-fluoro-2-(2-methanesulfonyl-phenyl)-quinolin-3-yl]-ethylamino}-pyrimidine-5-carbonitrile] gave an IC50 in series [1] of 0.27 nM. Further, in series [2] (setting [11]), the half-life at 1 μM is 6 h. In addition, in series [2] (versus compound E), the “improved stability in human hepatocytes (longer half-life), fold” value came to 1.3 ×.

Take `C[C@H](Nc1ncnc(N)c1C#N)c1cc2ccc(F)cc2nc1-c1ccccn1` [H, reference compound]: the half-life at 1 μM in [2] (setting [11]) was 0.88 h; in series [2] (setting [12]), less than 1 h.

`C[C@H](Nc1nc(N)nc(N)c1C#N)c1cc2ccc(F)cc2nc1-c1cccc(F)c1` [Compound 5, (S)-2,4-diamino-6-{1-[7-fluoro-2-(3-fluoro-phenyl)-quinolin-3-yl]-ethylamino}-pyrimidine-5-carbonitrile] displayed an IC50 in [1] of 0.14 nM. Also, the half-life at 1 μM in series [2] (setting [11]) was 20 h; in series [2] (setting [12]), more than 12 h.

On to `C[C@H](Nc1nc(N)nc(N)c1C#N)c1cc2ccc(F)cc2nc1-c1cc(F)cc(F)c1` [Compound 3, (S)-2,4-Diamino-6-{1-[2-(3,5-difluoro-phenyl)-7-fluoro-quinolin-3-yl]-ethylamino}-pyrimidine-5-carbonitrile], for which, in [1], it took 0.24 nM to reach half-maximal inhibition (IC50). The half-life at 1 μM in series [2] (setting [11]) is 17 h.

`C[C@H](Nc1nc(N)nc(N)c1C#N)c1cc2cccc(F)c2nc1-c1ccccn1` [Compound 6, (S)-2,4-Diamino-6-[1-(8-fluoro-2-pyridin-2-yl-quinolin-3-yl)-ethylamino]-pyrimidine-5-carbonitrile]: in series [2] (setting [11]), the half-life at 1 μM is 9 h.

Regarding `C[C@H](Nc1ncnc(N)c1C#N)c1cc2ccc(F)cc2nc1-c1ccccc1` [D, reference compound], the half-life at 1 μM in [2] (setting [11]) was 10 h.

Turning to `C[C@H](Nc1ncnc(N)c1C#N)c1cc2cccc(F)c2nc1-c1ccccc1S(C)(=O)=O` [F, reference compound], the values for the half-life at 1 μM in [2] (setting [11]) and in [2] (setting [12]) were 5.9 h and less than 6 h, respectively.

Regarding `N.N.[Cl][Pt][Cl]` [Cisplatin], the IC50 in [3] (cell viability) stood at 5.61 µM; in series [4] (cell viability), 0.507 µM; in series [5] (cell viability), 0.749 µM; in series [6] (cell viability) it was 0.28 µM; in series [7], 2.59 µM.

For the molecule `C[C@H](Nc1ncnc(N)c1C#N)c1cc2ccc(F)cc2nc1-c1cccc(F)c1` [G, reference compound], the half-life at 1 μM was 1.2 h in [2] (setting [11]) and less than 1.5 h in series [2] (setting [12]).

In the case of `CC[C@H](Nc1ncnc2[nH]cnc12)c1nc2cccc(F)c2c(=O)n1-c1ccccc1` [Idelalisib, idelalisib], the IC50 is 0.13 µM in series [3] (setting [13]); 0.198 µM in series [4] (setting [14]); 1.43 µM in series [5] (setting [15]); 1.68 µM in [6] (setting [18]); 0.506 µM in series [7]. Also, the figures for the “Fatal and/or serious hepatotoxicity, % of patients” value in series [8] (combination trials) and in series [8] (monotherapy) were 11% and 18%, respectively. Further, the “AUCinf” value in series [9] (setting [16]) is 1151 ± 407 ng·h/mL; in series [9] (setting [17]), 422 ± 67 ng·h/mL. Besides, the “Cl” value in [9] (setting [16]) was 478 ± 19 mL/min/kg. For the same molecule, the “Cmax” value in [9] (setting [16]) is given as 1437 ± 220 ng/mL; in series [9] (setting [17]), 129 ± 49 ng/mL. The “Tmax” value was 0.08 h in [9] (setting [16]) and 3.00 h in series [9] (setting [17]). Besides, the “VSS” value in series [9] (setting [16]) is on record as 2.49 L/kg. For the same molecule, the “t1/2” value in series [9] (rat, in vivo, iv) is 1.89 h.

As for `C[C@H](Nc1ncnc(N)c1C#N)c1cc2ccc(F)cc2nc1-c1ccccc1S(C)(=O)=O` [Compound E, reference compound], the half-life at 1 μM in series [2] (setting [11]) was 4.8 h.

On to `C[C@H](Nc1nc(N)nc(N)c1C#N)c1cc2cccc(Cl)c2nc1-c1ccccn1` [Compound 8, (S)-2,4-Diamino-6-[1-(8-chloro-2-pyridin-2-yl-quinolin-3-yl)-ethylamino]-pyrimidine-5-carbonitrile], for which the half-maximal inhibitory concentration (IC50) in series [1] amounted to 0.97 nM.

In series [1], `C[C@H](Nc1nc(N)nc(N)c1C#N)c1cc2cccc(F)c2nc1-c1ccccc1S(C)(=O)=O` [Compound 7, (S)-2,4-Diamino-6-{1-[8-fluoro-2-(2-methanesulfonyl-phenyl)-quinolin-3-yl]-ethylamino}-pyrimidine-5-carbonitrile] returned an IC50 of 2.1 nM. In addition, the results for the half-life at 1 μM in series [2] (setting [11]) and in series [2] (setting [12]) were 59 h and more than 48 h, respectively.

In the case of `C[C@H](Nc1nc(N)nc(N)c1C#N)c1cc2ccc(F)cc2nc1-c1ccccn1` [Compound 2, (S)-2,4-Diamino-6-[1-(7-fluoro-2-pyridin-2-yl-quinolin-3-yl)-ethylamino]-pyrimidine-5-carbonitrile], the half-inhibitory concentration (IC50) in series [3] (setting [13]) was determined as 0.035 µM; in series [4] (setting [14]) it was 0.088 µM; in [5] (setting [15]) it was 0.931 µM; in [1], 0.086 nM; in series [6] (setting [18]), 0.493 µM; in series [7], 0.216 µM. Further, the AUC(0-inf) in series [10] (setting [19]) is 4550 ng·h/mL; in series [10] (setting [20]), 29500 ng·h/mL. The Cmax in series [10] (setting [19]) is 1090 ng/mL; in series [10] (setting [20]), 3170 ng/mL. In addition, the Tmax in [10] (setting [19]) is 0.08 h; in [10] (setting [20]), 2 h. Further, the clearance in series [10] (setting [19]) amounted to 4.6 mL/min/kg. Further, the values for the half-life in [10] (setting [19]) and in series [10] (setting [20]) were 3.55 h and 3.12 h, respectively. Besides, the Vd in series [10] (Sprague-Dawley, rat, in vivo, 1.32 mg/kg, iv, rats, read-out: VSS) stood at 1.12 L/kg. This molecule also showed a bioavailability in series [10] (setting [20]) of 80%. Also, the AUCinf/Dose in series [10] (iv, rats) worked out at 3448; in series [10] (po, 10 mg/kg, SD rats), 2949. Moreover, the Cmax/Dose was found to be 828 in series [10] (iv, rats) and 317 in [10] (po, 10 mg/kg, SD rats). Besides, the “Oral exposure corrected with dose (AUCinf/dose), fold higher than that of idelalisib” value in [10] (oral dose 10 mg/kg, SD rats, versus idelalisib) amounted to 20 fold. Moreover, in [10] (po, 10 mg/kg, SD rats), the “Cl” value is 4.6 mL/min/kg. Besides, the half-life at 1 μM in series [2] (setting [11]) is 53 h; in series [2] (setting [12]), more than 48 h.

Molecule `C[C@H](Nc1nc(N)nc(N)c1C#N)c1cc2ccc(F)cc2nc1-c1ccccc1` [Compound 1, (S)-2,4-diamino-6-[1-(7-fluoro-2-phenyl-quinolin-3-yl)-ethylamino]-pyrimidine-5-carbonitrile] showed a concentration for half-maximal inhibition (IC50) in [1] of 0.043 nM. For the same molecule, the half-life at 1 μM in [2] (setting [11]) was 27 h. In addition, the “improved stability in human hepatocytes (longer half-life), fold” value in series [2] (versus compound D) worked out at 2.7 ×.
